Results reported in ChEMBL document CHEMBL4732128, “Methylsulfanylpyridine based diheteroaryl isocombretastatin analogs as potent anti-proliferative agents” (Eur J Med Chem, 2021).
Converted amounts (≈) assume the structure as drawn.

How the values were obtained:
[1] = Inhibition of bovine brain tubulin polymerization incubated for 30 mins by turbidimetric assay; assay type: tissue-based, Bos taurus
HeLa = assay: Antiproliferative activity against human HeLa cells assessed as inhibition of cell growth after 72 hrs by XTT assay; assay type: functional, cell-based
HL-60 = assay: Antiproliferative activity against human HL-60 cells assessed as inhibition of cell growth after 72 hrs by XTT assay; assay type: functional, cell-based; details: HL-60, 72 h
HT-29 = assay: Antiproliferative activity against human HT-29 cells assessed as inhibition of cell growth after 72 hrs by XTT assay; assay type: functional, cell-based; details: HT-29, 72 h
[2] = Aqueous solubility of the compound in pH 7.0 phosphate buffer at 2 mg incubated for 72 hrs by shake flask method; assay type: physicochemical

| Structure (SMILES) | IC50 [1] [nM] | IC50 (HeLa) [nM] | IC50 (HL-60) [nM] | IC50 (HT-29) [nM] | solubility thermodynamic at 72 h [2] [µg/mL] |
| --- | --- | --- | --- | --- | --- |
| CSc1cc(C(=NO)c2ccc3c(ccn3C)c2)cc(SC)n1 | 1000 | 590 | 240 | 745 |  |
| C=C(c1cc(SC)nc(SC)c1)c1ccc2c(c1)c(C=O)cn2C | 1200 | 64 | 303 | 573 | 7.6 (≈ 21.4 µM) |
| CCOC(=O)C(O)(c1ccc(OC)cc1)c1cc(Cl)nc(SC)c1 (stereo not given) | > 5000 | ≥ 10 | ≥ 10 | ≥ 10 |  |
| CSc1cc(C(=O)c2ccc3c(ccn3C)c2)cc(Cl)n1 | 2400 | 388 | 490 | ≥ 10 |  |
| C=C(c1cc(Cl)nc(SC)c1)c1ccc2c(ccn2C)c1 | 300 | 176 | 416 | 511 | 12.3 (≈ 39.1 µM) |
| C=C(c1cc(SC)nc(SC)c1)c1ccc2ccccc2c1 | > 5000 | ≥ 10 | ≥ 10 | ≥ 10 | 1.9 (≈ 5.87 µM) |
| CSc1cc(C(=NO)c2ccc3c(ccn3C)c2)cc(Cl)n1 | > 5000 | 365 | 257 | ≥ 10 | 14.8 (≈ 44.6 µM) |
| C=C(c1cc(SC)nc(SC)c1)c1ccc2c(c1)c(C(N)=O)cn2C | 2400 | 601 | 223 | 276 |  |
| C=C(c1ccc(N(C)C)cc1)c1cc(SC)nc(SC)c1 | 3800 | 328 | 486 | 928 | 6.9 (≈ 21.8 µM) |
| C=C(c1cc(Cl)nc(SC)c1)c1ccc2c(c1)c(C(N)=O)cn2C | 2300 | 82 | 44 | 38 |  |
| CSc1cc(C(O)c2ccc(N(C)C)nc2)cc(SC)n1 (stereo not given) | > 5000 | ≥ 10 | ≥ 10 | ≥ 10 |  |
| CSc1cc(C(=O)c2ccc3c(c2)c(C=O)cn3C)cc(SC)n1 | > 5000 | ≥ 10 | ≥ 10 | ≥ 10 | 230 (≈ 646 µM) |
| C=C(c1cc(SC)nc(SC)c1)c1ccc2c(c1)c(C#N)cn2C | 400 | 579 | 604 | 587 | 46.3 (≈ 132 µM) |
| COc1ccc(C(=NO)c2cc(Cl)nc(SC)c2)cc1 | 4600 | 518 | 613 | ≥ 10000 | 41.7 (≈ 135 µM) |
| COc1ccc(C(=O)c2cc(SC)nc(SC)c2)cc1 | > 5000 | ≥ 10000 | ≥ 10000 | ≥ 10000 | 1.5 (≈ 4.91 µM) |
| COc1ccc(C(C)c2cc(SC)nc(SC)c2)cc1 (stereo not given) | > 5000 | ≥ 10000 | ≥ 10000 | ≥ 10000 |  |
| CSc1cc(C(=NO)c2ccc(N(C)C)cc2)cc(SC)n1 | 2100 | 269 | 213 | 781 | 1.1 (≈ 3.3 µM) |
| COc1ccc(C(=O)c2cc(Cl)nc(SC)c2)cc1 | > 5000 | ≥ 10000 | ≥ 10000 | ≥ 10000 |  |
| CSc1cc(/C=C\c2ccc3c(ccn3C)c2)cc(SC)n1 | > 5000 | ≥ 10 | ≥ 10 | 633 |  |
| COc1ccc(/C=C\c2cc(SC)nc(SC)c2)cc1 | 3800 | ≥ 10 | ≥ 10 | ≥ 10 |  |
